Data set [1] can be described thus: Performance test: Fann rheology and gel strength of bentonite suspension with shale inhibitor. To be noted: 7.14 g/l Shale Inhibitor and 85.7 g/l Bentonite. How it is done: 350 ml of tap water are introduced into a beaker, 2.5 g of the shale inhibitor (calculated as dry mass—i.e. quaternized or non-quaternized polylysine or a prior art product) are added and the mixture is stirred for 20 min. The solution is transferred into an HB mixing cup. 30 g of Cebogel® NT (Bentonite, Cebo Holland B.V., The Netherlands) are added as a model substance for shale and the mixture is stirred at low speed for 10 min. Subsequently, the Fann rheology and the gel strength are determined.

Data set [2] can be described thus: OECD 306: Biodegradability in Seawater, Closed Bottle Method. How it is done: According to the method described in “OECD Guidelines for Testing of Chemicals—1992 OECD 306: Biodegradability in Seawater, Closed Bottle Method”, the biodegradability of the quaternized polylysine according to Example 3a, of Comp. sample 2 (Ultrahib®) and of a reference substance (sodium benzoate) was evaluated after 28 days and 60 days.

In the case of `C[N+](C)(C)CCO.[Cl-]` [Comp. 3, Cholinchlorid], in data set [1] (tap water), the “Fann 35 values 3” value came out at 4 Pa, the “Fann 35 values 6” value is 4 Pa, the “Fann 35 values 100” value is reported as 5 Pa and the “Fann 35 values 200” value turned out to be 6 Pa. In addition, in data set [1] (tap water), the “Fann 35 values 300” value came out at 6 Pa, the “Fann 35 values 600” value amounted to 8 Pa, the “Gel strength 10′” value came out at 3 Pa and the “Gel strength 10″” value came to 3 Pa. Also, in data set [1] (tap water), the PV stood at 3 mPa*s and the YP amounted to 5 Pa. In data set [1] (pH of the test mixture), the pH was 9.1.

On to `O=C([O-])c1ccccc1.[Na+]` [Reference, sodium benzoate], for which the “biodegradability Day 28” value in data set [2] (after 28 days) was determined as 80%. Moreover, in data set [2] (after 60 days), the “biodegradability Day 60” value worked out at 70%.

(Values after patent publication US9890315B2, “Use of polylysine as a shale inhibitor” (BASF SE, priority 2011, dated 2018).)
